Results published in ChEMBL document CHEMBL1909046, “DrugMatrix in vitro pharmacology data”.

How the values were obtained:
[1] = DRUGMATRIX: Glutamate, NMDA, Agonism radioligand binding (ligand: [3H] CGP-39653); format: cell membranes, Rattus norvegicus, Wistar, Cerebral cortex, Membrane; conditions: Not Active = under 50% inhibition at 10 µM
[2] = target: Mu-type opioid receptor (Homo sapiens, UniProt P35372); assay: DRUGMATRIX: Opiate mu (OP3, MOP) radioligand binding (ligand: [3H] Diprenorphine); format: cell membranes, CHO-K1, Membrane; conditions: cho-k1; Not Active = under 50% inhibition at 10 µM
Sequence of Mu-type opioid receptor (P35372 whole entry): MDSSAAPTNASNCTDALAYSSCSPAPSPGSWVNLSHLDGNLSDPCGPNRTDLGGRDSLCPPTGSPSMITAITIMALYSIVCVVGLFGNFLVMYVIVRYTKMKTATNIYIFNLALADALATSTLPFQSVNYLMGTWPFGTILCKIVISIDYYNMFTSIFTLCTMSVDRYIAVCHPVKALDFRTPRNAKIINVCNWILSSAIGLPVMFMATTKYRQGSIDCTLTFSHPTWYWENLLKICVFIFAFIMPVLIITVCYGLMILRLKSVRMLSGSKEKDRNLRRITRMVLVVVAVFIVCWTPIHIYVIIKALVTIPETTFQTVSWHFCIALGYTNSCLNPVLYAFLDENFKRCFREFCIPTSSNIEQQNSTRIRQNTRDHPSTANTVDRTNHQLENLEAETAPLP

[3] = target: Acetylcholinesterase (Homo sapiens, UniProt P22303); assay: DRUGMATRIX: Acetylcholinesterase enzyme inhibition (substrate: acetylthiocholine); format: cell-based, HEK293; conditions: hek293; Not Active = under 50% inhibition at 10 µM
Sequence of Acetylcholinesterase (P22303 whole entry): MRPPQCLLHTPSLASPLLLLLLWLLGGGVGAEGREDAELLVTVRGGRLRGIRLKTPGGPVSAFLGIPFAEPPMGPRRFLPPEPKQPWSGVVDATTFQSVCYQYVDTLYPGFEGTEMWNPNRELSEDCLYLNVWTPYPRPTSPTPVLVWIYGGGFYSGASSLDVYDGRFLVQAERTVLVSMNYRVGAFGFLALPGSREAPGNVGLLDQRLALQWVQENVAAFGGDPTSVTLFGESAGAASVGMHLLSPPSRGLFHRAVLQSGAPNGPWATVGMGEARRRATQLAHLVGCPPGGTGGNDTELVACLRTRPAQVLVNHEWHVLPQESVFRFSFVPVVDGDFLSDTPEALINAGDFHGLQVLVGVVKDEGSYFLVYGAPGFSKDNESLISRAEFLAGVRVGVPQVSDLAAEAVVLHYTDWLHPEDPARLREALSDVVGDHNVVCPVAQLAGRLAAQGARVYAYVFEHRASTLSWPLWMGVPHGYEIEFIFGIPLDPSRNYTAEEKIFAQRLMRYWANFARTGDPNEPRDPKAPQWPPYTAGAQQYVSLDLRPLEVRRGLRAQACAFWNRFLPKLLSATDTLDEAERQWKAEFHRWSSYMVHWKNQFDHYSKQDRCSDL

[4] = target: T1, Adenosine receptor A3 (Homo sapiens, UniProt P0DMS8); format: cell membranes, CHO-K1, Membrane; conditions: cho-k1;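 also: radioligand binding assay with AB-MECA serving as the labeled ligand; in other assays of this panel Not Active means under 50% inhibition at 10 µM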
T1 sequence (P0DMS8 whole entry): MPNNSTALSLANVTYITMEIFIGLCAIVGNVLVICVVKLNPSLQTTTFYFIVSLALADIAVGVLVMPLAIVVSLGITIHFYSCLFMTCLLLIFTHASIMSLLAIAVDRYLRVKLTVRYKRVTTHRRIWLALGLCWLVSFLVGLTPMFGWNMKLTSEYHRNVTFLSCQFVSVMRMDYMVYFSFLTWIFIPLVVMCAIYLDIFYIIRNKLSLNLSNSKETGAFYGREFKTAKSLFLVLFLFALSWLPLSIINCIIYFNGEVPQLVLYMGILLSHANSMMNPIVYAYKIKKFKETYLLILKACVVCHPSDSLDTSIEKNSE

[5] = target: T2, Caspase-1 (Homo sapiens, UniProt P29466); set-up: species or system Escherichia coli;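 also: Caspase-1 enzyme inhibition assay with a peptide substrate; in other assays of this panel Not Active means under 50% inhibition at 10 µM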
T2 sequence (P29466 whole entry): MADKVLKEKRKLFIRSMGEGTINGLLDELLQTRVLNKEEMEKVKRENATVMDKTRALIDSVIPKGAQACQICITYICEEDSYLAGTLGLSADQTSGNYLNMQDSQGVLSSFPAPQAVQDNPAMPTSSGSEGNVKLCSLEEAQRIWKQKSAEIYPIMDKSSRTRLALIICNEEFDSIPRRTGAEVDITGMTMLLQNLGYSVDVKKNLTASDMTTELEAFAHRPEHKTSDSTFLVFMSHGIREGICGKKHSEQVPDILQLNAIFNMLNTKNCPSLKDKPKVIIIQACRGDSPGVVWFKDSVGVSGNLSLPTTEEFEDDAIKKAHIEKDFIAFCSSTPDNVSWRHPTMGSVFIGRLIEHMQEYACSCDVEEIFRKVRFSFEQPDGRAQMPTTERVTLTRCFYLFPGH

[6] = target: Vasopressin V1a receptor (Homo sapiens, UniProt P37288); format: cell membranes, Membrane; conditions: hek293; also: in other assays of this panel Not Active means under 50% inhibition at 10 µM
Sequence of Vasopressin V1a receptor (P37288 whole entry): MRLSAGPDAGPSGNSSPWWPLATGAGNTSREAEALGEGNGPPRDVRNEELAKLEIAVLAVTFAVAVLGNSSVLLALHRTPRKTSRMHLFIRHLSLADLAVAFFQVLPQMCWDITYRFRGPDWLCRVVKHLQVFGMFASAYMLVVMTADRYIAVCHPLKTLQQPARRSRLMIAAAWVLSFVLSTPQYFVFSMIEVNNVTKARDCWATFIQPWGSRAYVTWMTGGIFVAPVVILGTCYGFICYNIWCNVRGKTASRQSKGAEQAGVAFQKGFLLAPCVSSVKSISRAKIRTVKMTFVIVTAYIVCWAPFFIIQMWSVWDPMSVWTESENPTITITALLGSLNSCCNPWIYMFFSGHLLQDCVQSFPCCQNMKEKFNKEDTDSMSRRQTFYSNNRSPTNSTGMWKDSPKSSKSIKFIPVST

[7] = target: T3, Muscarinic acetylcholine receptor M2 (Homo sapiens, UniProt P08172); format: cell membranes, CHO-K1, Membrane; conditions: cho-k1; also: in other assays of this panel Not Active means under 50% inhibition at 10 µM
T3 sequence (P08172 whole entry): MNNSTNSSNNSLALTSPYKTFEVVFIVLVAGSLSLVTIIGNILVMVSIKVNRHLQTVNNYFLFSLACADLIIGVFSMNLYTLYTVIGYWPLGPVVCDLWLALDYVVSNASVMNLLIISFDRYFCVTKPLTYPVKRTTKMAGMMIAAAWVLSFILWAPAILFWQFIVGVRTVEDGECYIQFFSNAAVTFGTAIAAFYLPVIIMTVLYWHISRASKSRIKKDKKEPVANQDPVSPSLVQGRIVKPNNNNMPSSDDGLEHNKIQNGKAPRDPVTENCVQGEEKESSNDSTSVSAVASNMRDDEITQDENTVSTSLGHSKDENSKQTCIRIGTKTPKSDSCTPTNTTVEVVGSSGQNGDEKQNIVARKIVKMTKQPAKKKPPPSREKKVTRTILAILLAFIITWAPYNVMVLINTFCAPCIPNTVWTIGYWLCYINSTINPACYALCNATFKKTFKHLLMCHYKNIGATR

[8] = DRUGMATRIX: GABAA, Flunitrazepam, Central radioligand binding (ligand: [3H] Flunitrazepam); format: cell membranes, Rattus norvegicus, Wistar, Brain, Membrane; conditions: Not Active = under 50% inhibition at 10 µM
[9] = target: T4, Type-2 angiotensin II receptor (Homo sapiens, UniProt P50052); format: cell-based; conditions: cho-k1; also: in other assays of this panel Not Active means under 50% inhibition at 10 µM
T4 sequence (P50052 whole entry): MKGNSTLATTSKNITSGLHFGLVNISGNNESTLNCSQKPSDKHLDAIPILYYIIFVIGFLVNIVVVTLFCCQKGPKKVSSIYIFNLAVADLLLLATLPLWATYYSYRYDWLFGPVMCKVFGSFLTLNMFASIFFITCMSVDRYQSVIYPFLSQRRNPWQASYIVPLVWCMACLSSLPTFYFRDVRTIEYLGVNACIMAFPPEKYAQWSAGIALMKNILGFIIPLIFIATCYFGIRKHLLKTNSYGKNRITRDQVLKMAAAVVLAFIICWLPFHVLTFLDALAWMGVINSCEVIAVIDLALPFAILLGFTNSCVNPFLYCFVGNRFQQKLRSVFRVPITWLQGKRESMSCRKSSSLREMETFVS

[10] = target: Cytochrome P450 2E1 (Homo sapiens, UniProt P05181); conditions: bti-tn-5b1-4; also: in other assays of this panel Not Active means under 50% inhibition at 10 µM
Sequence of Cytochrome P450 2E1 (P05181 whole entry): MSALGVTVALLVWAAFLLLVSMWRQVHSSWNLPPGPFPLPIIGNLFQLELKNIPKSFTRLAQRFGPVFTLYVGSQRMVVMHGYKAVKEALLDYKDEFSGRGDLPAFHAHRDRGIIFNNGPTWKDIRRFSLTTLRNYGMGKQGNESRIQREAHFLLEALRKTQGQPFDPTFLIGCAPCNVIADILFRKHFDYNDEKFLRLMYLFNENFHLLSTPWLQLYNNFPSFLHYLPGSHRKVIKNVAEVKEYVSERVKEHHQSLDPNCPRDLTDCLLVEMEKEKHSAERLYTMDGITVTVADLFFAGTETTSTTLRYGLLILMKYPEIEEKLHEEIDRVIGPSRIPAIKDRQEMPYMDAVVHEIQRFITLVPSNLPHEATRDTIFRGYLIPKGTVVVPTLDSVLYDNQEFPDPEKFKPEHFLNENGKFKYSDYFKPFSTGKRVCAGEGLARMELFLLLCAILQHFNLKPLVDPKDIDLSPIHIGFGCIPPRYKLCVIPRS

[11] = target: Mitogen-activated protein kinase 14 (Homo sapiens, UniProt Q16539); set-up: species or system Escherichia coli
Sequence of Mitogen-activated protein kinase 14 (Q16539 whole entry): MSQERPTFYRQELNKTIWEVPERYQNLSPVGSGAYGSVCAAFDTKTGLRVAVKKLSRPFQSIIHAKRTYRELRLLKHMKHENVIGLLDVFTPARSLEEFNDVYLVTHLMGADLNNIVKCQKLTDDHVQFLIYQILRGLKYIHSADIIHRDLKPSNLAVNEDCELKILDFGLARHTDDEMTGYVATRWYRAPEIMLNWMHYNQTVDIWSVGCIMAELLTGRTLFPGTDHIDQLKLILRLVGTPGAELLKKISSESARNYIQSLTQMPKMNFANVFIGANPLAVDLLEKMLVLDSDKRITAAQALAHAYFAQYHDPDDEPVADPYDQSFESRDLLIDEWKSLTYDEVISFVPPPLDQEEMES

Cc1cccc(Nc2ccncc2S(=O)(=O)NC(=O)NC(C)C)c1 [TORSEMIDE]
Not Active: IC50 [1] | Ki [1] | IC50 [2] | IC50 [3] | IC50 [4] | IC50 [5] | IC50 [6] | IC50 [7] | IC50 [8] | Ki [8] | IC50 [9] | IC50 [10] | Ki [10] | IC50 [11]

CC(C)C[C@H](NC(=O)[C@@H](O)[C@H](N)Cc1ccccc1)C(=O)O [UBENIMEX]
Not Active: IC50 [1] | Ki [1] | IC50 [2] | IC50 [3] | IC50 [4] | IC50 [5] | IC50 [6] | IC50 [7] | IC50 [8] | Ki [8] | IC50 [9] | IC50 [10] | Ki [10] | IC50 [11]

Cc1onc(-c2ccccc2)c1-c1ccc(S(N)(=O)=O)cc1 [VALDECOXIB]
Not Active: IC50 [1] | Ki [1] | IC50 [2] | IC50 [3] | IC50 [4] | IC50 [5] | IC50 [6] | IC50 [7] | IC50 [8] | Ki [8] | IC50 [9] | IC50 [10] | Ki [10] | IC50 [11]

CC[C@]1(O)C[C@@H]2CN(CCc3c([nH]c4ccccc34)[C@@](C(=O)OC)(c3cc4c(cc3OC)N(C)[C@H]3[C@@](O)(C(=O)OC)[C@H](OC(C)=O)[C@]5(CC)C=CCN6CC[C@]43[C@@H]65)C2)C1 [VINBLASTINE]
Not Active: IC50 [1] | Ki [1] | IC50 [2] | IC50 [3] | IC50 [4] | IC50 [5] | IC50 [6] | IC50 [7] | IC50 [8] | Ki [8] | IC50 [9] | IC50 [10] | Ki [10] | IC50 [11]

C[C@@H](N)[C@H]1CC[C@H](C(=O)Nc2ccncc2)CC1 [Y-27632]
Not Active: IC50 [1] | Ki [1] | IC50 [2] | IC50 [3] | IC50 [4] | IC50 [5] | IC50 [6] | IC50 [7] | IC50 [8] | Ki [8] | IC50 [9] | IC50 [10] | Ki [10] | IC50 [11]

[Cl-].[Cl-].[Zn+2] [ZINC CHLORIDE]
Not Active: IC50 [1] | Ki [1] | IC50 [2] | IC50 [3] | IC50 [4] | IC50 [5] | IC50 [6] | IC50 [7] | IC50 [8] | Ki [8] | IC50 [9] | IC50 [10] | Ki [10] | IC50 [11]
